Patent publication US20110009335A1, “Anticancer Treatments” (priority 2008, published 2011)
Starred links: 1 amine or outer side, 2 acyl side, 3 side chain; linkers in the order of their positions; H or OH if unused. Positions of bridges follow the written chain, without caps; N, C: chain ends. Non-standard residues stand in square brackets, D forms with d. Residues, ends and D or L forms follow the SMILES beside them. *: point of attachment. X1 = CC[C@H](C)[C@@H](N[*:1])[C@@H](O)CC(=O)O[C@H](C(=O)[C@H](C)C(=O)[*:2])C(C)C; NMeY = CN[C@@H](Cc1ccc(O)cc1)C(=O)O; dNMeL = CN[C@H](CC(C)C)C(=O)O; Pyruvoyl = CC(=O)C(=O)*

Tests used:
[1] = system: CAKI-1 human renal tumor xenograft; experiment: Aplidine with sorafenib, CAKI-1 xenograft in athymic nude mice (Example 1); type: in vivo
Method: Female athymic nude mice (Harlan Sprague Dawley, Madison, Wis.) were utilized for all experiments. Mice were implanted with tumor fragments or a cell suspension when mice were 5 weeks of age. Animals were housed in ventilated rack caging, 5 mice per cage, with food and water ad libitum. The mice were acclimated for 1 week prior to being implanted with tumor fragments or cell suspensions.
Tumor measurements were determined by using Vernier calipers. The formula to calculate volume for a prolate ellipsoid was used to estimate tumor volume (mm^3) from 2-dimensional tumor measurements: Tumor volume (mm^3)=[L×W^2]÷2, where L is the length and it is the longest diameter in mm, and W is the width and it is the shortest diameter in mm of a tumor. Assuming unit density, volume was converted to weight (i.e., 1 mm^3=1 mg).
(§1) Body weights were recorded on treatment days and when tumor sizes were measured. In those days wherein the two drugs were administered the same day, the combination therapy groups were treated by co-administering the two drugs at the same time, with no attempt to sequence the treatments.
(§2) Aplidine was provided in the form of vials of lyophilized aplidine powder which was reconstituted in Cremophor EL/ethanol/water (CEW) 15/15/70 to a concentration of 0.5 mg/ml. Then the aplidine solution in CEW was diluted in 0.9% Saline to the dosing formulation concentrations, being the final proportion of CEW of 0.18/0.18/0.84.
Tumor size measurements were recorded twice weekly from the treatment initiation until the termination of the study.
(§3) Mean, standard deviation and standard error of the mean were determined for tumor volume for all animal groups at all assessments. Student's t test was performed on tumor volumes at each measurement day, including at the end of the study, to determine whether there were any statistically significant differences between combination treatment groups and single monotherapy treatment groups.
Determine the % of tumor growth inhibition, as 100−% T/C, for each of the drugs administered as monotherapy at the doses used in the combinations. % T/C was obtained by comparing the mean tumor weight in the treatment groups (T) to the mean tumor weight in the control group (C) (T/C×100%). • 2. The two scores were added together to determine the “expected response” if each agent produced the same response as it did when administered as monotherapy. • 3. This “expected response” was subtracted from the % of tumor growth inhibition determined for the combination therapy group: • a. A negative number meant that the effect of combining the two drugs was less than additive. • b. If the resulting number was close to zero, the effect of combining the two drugs was determined as additive. • c.

[2] = system: NCI-H-460 human NSCLC xenograft; experiment: Aplidine with temsirolimus, NCI-H-460 xenograft in athymic nude mice (Example 5); type: in vivo; conditions: for % Inhibition G2: aplidine 0.06 mg/kg/day; for antitumor activity as single agent (monotherapy): temsirolimus 10 and 20 mg/kg/day; for % Inhibition G4: temsirolimus 10 mg/kg/day; for % Inhibition G3: temsirolimus 20 mg/kg/day
Method: Female athymic nude mice (Harlan Sprague Dawley, Madison, Wis.) were utilized for all experiments. Mice were implanted with a cell suspension when mice were 6-8 weeks of age. Animals were housed in ventilated rack caging with food and water ad libitum. The mice were acclimated for at least 5 days prior to tumor implantation.
The tumor model used in this study was NCI-H-460, which is a human NSCLC cell line obtained from the ATCC (Manassas, Va.). NCI-H-460 cells were grown in RPMI-1640 medium, 10% FBS, 10 mM Hepes, 1 mM sodium pyruvate, 4.5 g/l glucose, 1.5 g/l sodium bicarbonate and 2 mM L-glutamine. Cells from in vitro passage 11 were implanted SC into study mice: 5×10^6 cells/mouse in 0.2 ml 50% Matrigel/50% medium without antibiotics or serum, using a 23 G needle and 1 cc syringe.
Tumor measurements were determined as disclosed in Example 1. When tumor growth was within an average size range of 110±25 mg (mean±SD), mice were randomized into the treatment and control groups based on tumor weight by using LabCat® In Life module V 8.0 SP1 tumor tracking and measurement software.
as §1, with “The treatment of NCI-H-460-tumor-bearing mice was initiated on DPI (Day Post Implantation) 7. Body” for “Body”
as §2, with “The” for “Then the”
Temsirolimus was provided in the form of vials containing a non-aqueous, ethanolic, sterile solution of temsirolimus, 25 mg/ml. […] Then, the solution was further diluted in 0.9% Saline to the dosing formulation concentrations.
Tumor size measurements were recorded twice weekly from the treatment initiation until the termination of the study. Tumor growth inhibition was assessed comparing the mean tumor weight between the two agents in combination (aplidine and temsirolimus) against temsirolimus mean tumor weight at the different concentrations assayed.
as §3
The definition and criteria for the evaluation of potentiation and the degree of additivity for the combination therapy were the same as those disclose in Example 1.

[3] = aplidine 0.040 and/or sorafenib 30 mg/kg/day
[4] = aplidine 0.060 and/or sorafenib 60 mg/kg/day
[5] = G2: aplidine 0.060 mg/kg/day IP
[6] = G3: temsirolimus 20 mg/kg/day IP
[7] = G4: temsirolimus 10 mg/kg/day IP

SMILES: CNC(=O)c1cc(Oc2ccc(NC(=O)Nc3ccc(Cl)c(C(F)(F)F)c3)cc2)ccn1 [sorafenib]
- % T/C on day 7 [1, 3]: 116.6%
- % T/C on day 9 [1, 3]: 130.2%
- % T/C on day 13 [1, 3]: 105.4%
- % T/C on day 21 [1, 3]: 113.0%
- % T/C on day 23 [1, 3]: 117.1%
- % T/C on day 28 [1, 3]: 90.3%
- % T/C on day 31 [1, 3]: 84.0%
- % T/C on day 34 [1, 3]: 86.0%
- % T/C on day 37 [1, 3]: 92.8%
- % T/C on day 41 [1, 3]: 98.0%
- % T/C on day 44 [1, 3]: 105.8%
- % T/C on day 49 [1, 3]: 102.8%
- % T/C on day 7 [1, 4]: 100.6%
- % T/C on day 9 [1, 4]: 128.9%
- % T/C on day 13 [1, 4]: 104.5%
- % T/C on day 21 [1, 4]: 121.2%
- % T/C on day 23 [1, 4]: 116.6%
- % T/C on day 28 [1, 4]: 110.5%
- % T/C on day 31 [1, 4]: 105.2%
- % T/C on day 34 [1, 4]: 110.2%
- % T/C on day 37 [1, 4]: 119.5%
- % T/C on day 41 [1, 4]: 120.5%

SMILES: CC[C@H](C)[C@H]1NC(=O)[C@@H](NC(=O)[C@@H](CC(C)C)N(C)C(=O)[C@@H]2CCCN2C(=O)C(C)=O)[C@@H](C)OC(=O)[C@H](Cc2ccc(OC)cc2)N(C)C(=O)[C@@H]2CCCN2C(=O)[C@H](CC(C)C)NC(=O)[C@@H](C)C(=O)[C@H](C(C)C)OC(=O)C[C@@H]1O [aplidine, dehydrodidemnin B] (Pyruvoyl-P[dNMeL]T[X1]LP[NMeY](Me); ester 3-C)
- % T/C on day 7 [1, 3]: 115.8%
- % T/C on day 9 [1, 3]: 124.7%
- % T/C on day 13 [1, 3]: 101.5%
- % T/C on day 16 [1, 3]: 108.2%
- % T/C on day 21 [1, 3]: 104.9%
- % T/C on day 23 [1, 3]: 104.3%
- % T/C on day 28 [1, 3]: 104.6%
- % T/C on day 31 [1, 3]: 96.8%
- % T/C on day 34 [1, 3]: 100.9%
- % T/C on day 37 [1, 3]: 108.7%
- % T/C on day 41 [1, 3]: 109.5%
- % T/C on day 44 [1, 3]: 108.4%
- % T/C on day 49 [1, 3]: 104.4%
- % T/C on day 7 [1, 4]: 103.9%
- % T/C on day 9 [1, 4]: 113.8%
- % T/C on day 13 [1, 4]: 101.6%
- % T/C on day 16 [1, 4]: 105.7%
- % T/C on day 21 [1, 4]: 108.5%
- % T/C on day 23 [1, 4]: 109.0%
- % T/C on day 28 [1, 4]: 107.5%
- % T/C on day 31 [1, 4]: 100.3%
- % T/C on day 34 [1, 4]: 101.8%
- % T/C on day 37 [1, 4]: 107.7%
- % T/C on day 41 [1, 4]: 103.1%
- % T/C on day 44 [1, 4]: 99.4%
- % T/C on day 49 [1, 4]: 96.5%
- antitumor activity as single agent (monotherapy) ([1]; doses and schedules tested): inactive
- % T/C on day 7 [2, 5]: 101.2%
- % T/C on day 10 [2, 5]: 95.5%
- % T/C on day 13 [2, 5]: 73.2%
- % T/C on day 16 [2, 5]: 77.4%
- % T/C on day 20 [2, 5]: 88.5%
- % T/C on day 23 [2, 5]: 84.3%
- % T/C on day 27 [2, 5]: 86.4%
- % T/C on day 29 [2, 5]: 96.9%
- % T/C on day 31 [2, 5]: 96.0%
- % Inhibition G2 ([2]; day 7): −1.2%
- % Inhibition G2 ([2]; day 10): 4.5%
- % Inhibition G2 ([2]; day 13): 26.8%
- % Inhibition G2 ([2]; day 16): 22.6%
- % Inhibition G2 ([2]; day 20): 11.5%
- % Inhibition G2 ([2]; day 23): 15.7%
- % Inhibition G2 ([2]; day 27): 13.6%
- % Inhibition G2 ([2]; day 29): 3.1%
- % Inhibition G2 ([2]; day 31): 4.0%
- antitumor activity as single agent (monotherapy) [2]: inactive

SMILES: CO[C@H]1C[C@@H]2CC[C@@H](C)[C@@](O)(O2)C(=O)C(=O)N2CCCC[C@H]2C(=O)O[C@H]([C@H](C)C[C@@H]2CC[C@@H](OC(=O)C(C)(CO)CO)[C@H](OC)C2)CC(=O)[C@H](C)/C=C(\C)[C@@H](O)[C@@H](OC)C(=O)[C@H](C)C[C@H](C)/C=C/C=C/C=C/1C [temsirolimus]
- % T/C on day 7 [2, 6]: 98.2%
- % T/C on day 10 [2, 6]: 41.2%
- % T/C on day 13 [2, 6]: 30.5%
- % T/C on day 16 [2, 6]: 30.9%
- % T/C on day 20 [2, 6]: 26.3%
- % T/C on day 23 [2, 6]: 27.4%
- % T/C on day 27 [2, 6]: 35.6%
- % T/C on day 29 [2, 6]: 48.2%
- % T/C on day 31 [2, 6]: 56.8%
- % T/C on day 7 [2, 7]: 102.1%
- % T/C on day 10 [2, 7]: 49.9%
- % T/C on day 13 [2, 7]: 37.1%
- % T/C on day 16 [2, 7]: 34.1%
- % T/C on day 20 [2, 7]: 30.9%
- % T/C on day 23 [2, 7]: 31.4%
- % T/C on day 27 [2, 7]: 42.6%
- % T/C on day 29 [2, 7]: 57.8%
- % T/C on day 31 [2, 7]: 60.3%
- % Inhibition G4 ([2]; day 7): −2.1%
- % Inhibition G4 ([2]; day 10): 50.1%
- % Inhibition G4 ([2]; day 13): 62.9%
- % Inhibition G4 ([2]; day 16): 65.9%
- % Inhibition G4 ([2]; day 20): 69.1%
- % Inhibition G4 ([2]; day 23): 68.6%
- % Inhibition G4 ([2]; day 27): 57.4%
- % Inhibition G4 ([2]; day 29): 42.2%
- % Inhibition G4 ([2]; day 31): 39.7%
- % Inhibition G3 ([2]; day 7): 1.8%
- % Inhibition G3 ([2]; day 10): 58.8%
- % Inhibition G3 ([2]; day 13): 69.5%
- % Inhibition G3 ([2]; day 16): 69.1%
- % Inhibition G3 ([2]; day 20): 73.7%
- % Inhibition G3 ([2]; day 23): 72.6%
- % Inhibition G3 ([2]; day 27): 64.4%
- % Inhibition G3 ([2]; day 29): 51.8%
- % Inhibition G3 ([2]; day 31): 43.2%
- antitumor activity as single agent (monotherapy) [2]: meeting the NCI criteria for activity
